# ± gives the standard deviation of the averaged measurements.
# Columns and labels:
# Details in all cases: 72 h
# [1] = system: Caco-2; assay: cell viability relative to DMSO; higher = less toxic
# [2] = system: Calu-3; assay: as above
# [3] = system: HepG2; assay: as above
# [4] = system: U2OS; assay: as above
# [5] = system: Vero E6; assay: as above
# [6] = system: Caco-2; assay: relative viability EC50 (midpoint between 100% and the lowest measured viability); higher = less toxic
# [7] = system: Calu-3; assay: as above
# [8] = system: HepG2; assay: as above
# [9] = system: U2OS; assay: as above
# [10] = system: Vero E6; assay: as above
# [11] = system: Caco-2; assay: drug sensitivity score (DSS) for viability; higher = more toxic; extreme values may be limits of the assay
# [12] = system: Calu-3; assay: as above
# [13] = system: HepG2; assay: as above
# [14] = system: U2OS; assay: as above
# [15] = system: Vero E6; assay: as above
Structure (SMILES),cell viability ([1]; 1 nM) [%],cell viability ([1]; 10 nM) [%],cell viability ([1]; 100 nM) [%],cell viability ([1]; 1000 nM) [%],cell viability ([1]; 10000 nM) [%],cell viability ([2]; 1 nM) [%],cell viability ([2]; 10 nM) [%],cell viability ([2]; 100 nM) [%],cell viability ([2]; 1000 nM) [%],cell viability ([2]; 10000 nM) [%],cell viability ([3]; 1 nM) [%],cell viability ([3]; 10 nM) [%],cell viability ([3]; 100 nM) [%],cell viability ([3]; 1000 nM) [%],cell viability ([3]; 10000 nM) [%],cell viability ([4]; 1 nM) [%],cell viability ([4]; 10 nM) [%],cell viability ([4]; 100 nM) [%],cell viability ([4]; 1000 nM) [%],cell viability ([4]; 10000 nM) [%],cell viability ([5]; 1 nM) [%],cell viability ([5]; 10 nM) [%],cell viability ([5]; 100 nM) [%],cell viability ([5]; 1000 nM) [%],cell viability ([5]; 10000 nM) [%],relative viability EC50 [6] [µM],relative viability EC50 [7] [µM],relative viability EC50 [8] [µM],relative viability EC50 [9] [µM],relative viability EC50 [10] [µM],drug sensitivity score [11],drug sensitivity score [12],drug sensitivity score [13],drug sensitivity score [14],drug sensitivity score [15]
CC(C)n1c(=O)n(C(=O)N[C@H]2C[C@H]3CC[C@@H](C2)N3C)c2ccccc21 [BIMU-8],99,105,98.1,102,96.9,96.4,105,96.3,92.3,93.9,93.2,95.2,90.5,93.2,97,102,103,99.1,101,99.1,105,99.6,99.6,98.9,94.7,> 10,> 10,> 10,> 10,> 10,0,0,0,0,0
C[C@@H](Oc1ccc2[nH]nc(/C=C/c3cnn(CCO)c3)c2c1)c1c(Cl)cncc1Cl,87.3,99.5,91.5,83.3,33.1,101,99.9,98.6,75.5,31.8,108,102,85.5,46.4,10.6,94.3,94.3,91,33.5,0.2,95.3,92.4,98.6,71.9,12.7,1.61,1.26,0.617,0.582,1.35,6.1,7.2,12.1,14,8.9
N=C(N)NCCC[C@H](NC(=O)c1sccc1NS(=O)(=O)c1cccc2nsnc12)C(=O)O,96.9,104,98.5,101,105,92.7,110,106,117,110,105,101,95.8,105,103,98.3,102,96.3,105,98.4,105,103,101,98.4,97.1,> 10,> 10,> 10,> 10,> 10,0,0,0,0,0
CC(NC(=O)c1ccccc1/N=C/c1c(O)ccc2ccccc12)c1ccccc1 (stereo not given) [sirtinol],93.6,97.8,101,105,110,96.5,97.6,104,112,104,101,106,90.7,96.9,100,96.8,102,96.1,101,103,97.1,91.2,93,92.4,101,> 10,> 10,> 10,> 10,> 10,0,0,0,0,0
Cc1cccc(-c2nn3c(c2-c2ccnc4ccc(C(N)=O)cc24)CCC3)n1,96.9,87.8,93.1,100,109,95.4,108,91.4,105,113,103,96.5,106,99.4,106,98.3,99.5,95.8,96,92.6,98.9,99,101,99.9,113,> 10,> 10,> 10,> 10,> 10,0,0,0,0,0
NCCCC(O)(P(=O)(O)O)P(=O)(O)O [alendronate],97.4,102,96.9,99.8,94.3,85.5,103,92.3,107,98.5,101,91.7,107,95.4,88.8,96.6,103,94.8,104,97.7,102,98.5,106,103,106,> 10,> 10,> 10,> 10,> 10,0,0,0.1,0,0
CC(C)CCNc1ncccc1C(=O)N1CCN(Cc2ccccc2)CC1 [NSI-189],96.8,97.8,100,92.9,106,96.3,108,92.5,92.7,115,108,91.5,102,91.2,103,97.5,98,95.5,97.8,99.3,96.5,95.7,94.9,93.3,104,> 10,> 10,> 10,> 10,> 10,0,0,0,0,0
C[C@]12CC[C@@H](O)C[C@H]1CC[C@@H]1[C@@H]2CC[C@]2(C)C(=O)CC[C@@H]12 [3-alpha-hydroxy-5-beta-androstan-17-one],97.8 ± 5,104 ± 14,97.6 ± 4.1,98.8 ± 3.4,92.9 ± 15,99.6 ± 4.8,97.4 ± 4,96.1 ± 3.2,97.8 ± 6.8,101 ± 3.2,101 ± 8.8,96.6 ± 5.6,102 ± 5.1,104 ± 7.5,87.4 ± 9.7,102 ± 2.1,97.8 ± 1.6,102 ± 2.6,98.6 ± 2.8,99.9 ± 3.2,99.8 ± 2.9,101 ± 1.3,103 ± 3.8,103 ± 2.3,94.3 ± 1.5,> 10,> 10,> 10,> 10,> 10,0.233 ± 0.4,0,0.233 ± 0.4,0,0
CCOc1ccc(NC(C)=O)cc1 [phenacetin],105,81.8,101,110,85.9,90.3,90.8,99.5,94.3,104,95.8,77.6,90.8,93.7,84.1,100,94.6,90.2,90.3,97.8,109,102,108,96,102,> 10,> 10,> 10,> 10,> 10,0.1,0,0,0,0
CCN(CC)CCNC(=O)COc1ccc(OC)cc1 [mefexamide],93,98.3,81.7,81.9,102,108,106,109,106,98.5,114,73.9,92.7,114,119,97.9,99.3,104,98,102,95.1,106,95.4,96.8,108,> 10,> 10,> 10,> 10,> 10,0.1,0,0,0,0
Nc1nc(-c2ccc(Cl)c(Cl)c2)c(-c2ccncc2)s1 [CGH2466],91.8,86.1,102,99.7,95.9,109,100,107,95.7,107,96.5,104,117,106,112,96.5,99.9,96.3,100,90.1,87.1,95.3,100,93.9,93.9,> 10,> 10,> 10,> 10,> 10,0,0,0,0,0
CC=CC1=C(C(=O)O)N2C(=O)[C@@H](NC(=O)[C@H](N)c3ccc(O)cc3)[C@H]2SC1 (mixture of isomers) [cefprozil],101,94.3,82.7,120,125,86.7,94.2,81,97.8,95.5,112,104,100,97.2,106,95.8,101,96.8,99.8,98.7,110,90.7,99.9,103,112,> 10,> 10,> 10,> 10,> 10,0,0,0,0,0
COc1cc(-c2ccc(=O)[nH]n2)ccc1OC(F)F [zardaverine],87.1,90,96.9,96.3,104,108,95.9,89.5,92.4,89.4,93.8,110,95.7,106,99.7,97.8,95.8,103,98,99.2,95.5,101,94.5,93,92.6,> 10,> 10,> 10,> 10,> 10,0,0.3,0,0,0
O=C(O)c1ccccc1Nc1cccc(OCc2ccc3ccccc3n2)c1 [SR-2640],105,103,107,96.8,91.7,97.6,94.6,103,98.2,98.4,87.9,96.3,96.9,101,105,105,98.1,103,99.2,101,92,98.9,92.9,95,86.9,> 10,> 10,> 10,> 10,> 10,0,0,0,0,0
COc1cc2c(NC3CCN(C)CC3)nc(N3CCCN(C)CC3)nc2cc1OCCOCCN(C)C [UNC0321],105,94,102,102,100,89.5,107,99,99.2,97,99.9,107,105,102,102,100,100,98.3,102,97.6,99.7,104,104,97,96.9,> 10,> 10,> 10,> 10,> 10,0,0,0,0,0
